Read-outs that look alike come from different tables or passages of the source.
Tests used:
[1] = target: T1, K-Ras G12V (Homo sapiens, UniProt P01116, G12V); assay: PPI-HTRF assay, K-Ras G12V / SOS1 interaction; format: biochemical
T1 construct: made in house; host or cells: E. coli, e.g. BL21 (DE3)
Method in brief: (§1)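 HTRF readout: 665/620 nm ratio (ex 337 nm) after ≥10 min incubation. Donor anti-GST-Eu(K) sits on GST-K-Ras (WT, G12D, G12V or G12S) and acceptor anti-6His-XL665 on His-hSOS1. Buffer ~5 mM HEPES pH 7.4, ~150 mM NaCl, ~1 mM DTT, 0.05% BSA, 0.0025% Igepal. Duplicate 6-point dilution, 10–0.01 μM, fitted to IC50.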

[2] = system: SW620 cells; assay: Ras cellular assay, cell proliferation SW620; format: cell-based; conditions: Homo sapiens, SW-620
Source text: (§2) For example, this assay can be also used to assess selective growth inhibition of a mutant Ras protein relative to a wildtype, or relative to a different mutant Ras protein.

[3] = target: T2, K-Ras G12D (Homo sapiens, UniProt P01116, G12D); assay: PPI-HTRF assay, K-Ras G12D / SOS1 interaction; format: biochemical
T2 construct: made in house; host or cells: E. coli, e.g. BL21 (DE3)
Method in brief: as §1

[4] = system: GP2D cells; assay: Ras cellular assay, cell proliferation GP2D; format: cell-based
Method in brief: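 GP2D cells (G12D Ras mutant) seeded (e.g., 800/well) and treated the next day with a dilution series (e.g., 9-point, 3-fold). After approximately 5 days, viability measured by CellTiter-Glo luminescence; IC50 from four-parameter fit.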

[5] = target: T3, K-Ras G12S (Homo sapiens, UniProt P01116, G12S); assay: PPI-HTRF assay, K-Ras G12S / SOS1 interaction; format: biochemical
T3 construct: made in house; host or cells: E. coli, e.g. BL21 (DE3)
Method in brief: as §1

[6] = system: A549 cells; assay: Ras cellular assay, cell proliferation A549; format: cell-based; conditions: Homo sapiens
Procedure: as §2
A549 (ATCC CRL-185) and LS123 (ATCC CRL-255) cell lines comprise a G12S mutation and can be used to assess Ras cellular signaling in vitro, e.g., in response to treatment with a compound described herein. A549 culture medium is prepared with RPMI-1640 and 10% heat-inactivated FBS. LS123 culture medium is prepared with RPMI-1640 and 10% heat-inactivated FBS. A CellTiter-Glo (CTG) luminescent based assay (Promega) is used to assess growth of the cells, as a measurement of the ability of the compounds herein to inhibit Ras signaling in the cells. The cells (e.g., 800 per well) are seeded in their respective culture medium in standard tissue culture-treated 384-well format plates (Falcon #08-772-116) or ultra-low attachment surface 384-well format plates (S-Bio #MS-9384WZ). The day after plating, cells are treated with a dilution series (e.g., a 10 point, 3-fold dilution series) of the compounds herein (e.g., approximately 40 μL final volume per well). Cell viability can be monitored (e.g., approximately 6 days later) according to the manufacturer's recommended instructions, where CellTiter-Glo reagent is added (e.g., approximately 10 μL), vigorously mixed, covered, and placed on a plate shaker (e.g., approximately for 20 min) to ensure sufficient cell lysis prior to assessment of luminescent signal. The IC50 values are determined using the four parameter fit. The resulting IC50 value is a measurement of the ability of the test compound to reduce cell growth of Ras-driven cells (e.g., tumor cell lines) in vitro and/or in vivo.

[7] = target: T4, wildtype K-Ras (Homo sapiens, UniProt P01116); assay: PPI-HTRF assay, wildtype K-Ras / SOS1 interaction; format: biochemical
T4 construct: made in house; host or cells: E. coli, e.g. BL21 (DE3)
Method in brief: as §1

[8] = HTRF, K-Ras G12V, read-out: PPI-HTRF-5 nM (K-Ras G12V IC50)
[9] = HTRF, K-Ras G12D, read-out: PPI-HTRF-5 nM (K-Ras G12D IC50)
[10] = read-out: PPI-HTRF-5 nM (K-Ras G12S IC50)
[11] = HTRF, K-Ras wt, read-out: PPI-HTRF-5 nM (K-Ras wt IC50)

T4 sequence (P01116 1-188 isoform P01116-2): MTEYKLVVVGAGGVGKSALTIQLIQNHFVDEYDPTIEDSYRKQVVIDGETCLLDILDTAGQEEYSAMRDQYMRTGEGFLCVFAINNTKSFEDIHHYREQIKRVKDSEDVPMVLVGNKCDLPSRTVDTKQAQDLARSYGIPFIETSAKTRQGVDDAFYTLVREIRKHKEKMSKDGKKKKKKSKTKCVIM
T3 sequence (P01116 1-188 isoform P01116-2 G12S): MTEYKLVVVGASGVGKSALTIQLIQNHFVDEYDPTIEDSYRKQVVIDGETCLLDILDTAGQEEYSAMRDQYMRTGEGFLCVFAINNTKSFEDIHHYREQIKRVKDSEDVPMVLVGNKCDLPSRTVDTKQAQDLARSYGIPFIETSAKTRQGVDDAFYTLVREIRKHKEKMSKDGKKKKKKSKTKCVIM
T1 sequence (P01116 1-188 isoform P01116-2 G12V): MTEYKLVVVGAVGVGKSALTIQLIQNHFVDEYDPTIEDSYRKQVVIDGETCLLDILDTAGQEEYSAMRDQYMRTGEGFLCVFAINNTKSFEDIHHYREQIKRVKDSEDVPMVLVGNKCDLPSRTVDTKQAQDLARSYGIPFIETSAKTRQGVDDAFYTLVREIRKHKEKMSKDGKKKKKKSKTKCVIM
T2 sequence (P01116 1-188 isoform P01116-2 G12D): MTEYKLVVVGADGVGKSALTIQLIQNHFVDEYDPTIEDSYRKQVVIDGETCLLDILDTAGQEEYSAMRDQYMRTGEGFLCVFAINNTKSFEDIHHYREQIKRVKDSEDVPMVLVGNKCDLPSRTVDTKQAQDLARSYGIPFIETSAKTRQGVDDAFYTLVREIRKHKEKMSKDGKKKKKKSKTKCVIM

Row | SMILES | IC50 [1] | IC50 [2] | IC50 [3] | IC50 [4] | IC50 ([5]; PPI-HTRF-5 nM (K-Ras G12S IC50)) | IC50 [6] | IC50 [7] | IC50 [1, 8] | IC50 [3, 9] | IC50 [5, 10] | IC50 [7, 11]
1 | CN1c2nc(OC[C@@]34CCCN3C[C@H](F)C4)nc3c(F)c(-c4ccc(F)c5sc(N)c(C#N)c45)c(Cl)c(c23)OC2CN(C(=O)C3N[C@H]3C3CC3)CC21 (stereo partly drawn) [compound 108, 2-amino-4-(6-chloro-9-((3S)-3-cyclopropylaziridine-2-carbonyl)-4-fluoro-2-(((2R,7aS)-2-fluorotetrahydro-1H-pyrrolizin-7a(5H)-yl)methoxy)-11-methyl-7a,8,9,10,10a,11-hexahydropyrrolo[3′,4′:2,3][1,4]oxazepino [5,6,7-de]quinazolin-5-yl)-7-fluorobenzo[b]thiophene-3-carbonitrile] | < 5 µM | > 5 µM | < 5 µM | < 5 µM | < 5 µM | > 5 µM | < 5 µM |  |  |  | 
2 | CC(=O)N1CC2Oc3c(Cl)c(-c4ccc(F)c5sc(N)c(C#N)c45)c(F)c4nc(OC[C@@]56CCCN5C[C@H](F)C6)nc(c34)N(C)C2C1 (stereo partly drawn) [compound 172, 4-(9-acetyl-6-chloro-4-fluoro-2-(((2R,7aS)-2-fluorotetrahydro-1H-pyrrolizin-7a(5H)-yl)methoxy)-11-methyl-7a,8,9,10,10a,11-hexahydropyrrolo[3′,4′:2,3][1,4]oxazepino [5,6,7-de]quinazolin-5-yl)-2-amino-7-fluorobenzo[b]thiophene-3-carbonitrile] |  | > 5 µM |  | > 5 µM |  | > 5 µM |  | < 5 µM | < 5 µM | < 5 µM | < 5 µM
3 | N#Cc1c(N)sc2c(F)ccc(-c3c(Cl)c4c5c(nc(OC[C@@]67CCCN6C[C@H](F)C7)nc5c3F)N3CCCC[C@@H]3CCO4)c12 [compound 196, 2-amino-4-((6aR)-3-chloro-1-fluoro-13-(((2R,7aS)-2-fluorotetrahydro-1H-pyrrolizin-7a(5H)-yl)methoxy)-6,6a,7,8,9,10-hexahydro-5H-pyrido[11,2′:5,6][1,5]oxazocino[4,3,2-de]quinazolin-2-yl)-7-fluorobenzo[b]thiophene-3-carbonitrile] |  | < 5 µM |  | < 5 µM |  | < 5 µM |  | < 5 µM | < 5 µM | < 5 µM | < 5 µM
4 | N#Cc1c(N)sc2c(F)ccc(-c3c(Cl)c4c5c(nc(OCC67CCCN6C[C@H](F)C7)nc5c3F)N3CCC(O)CC3CO4)c12 (stereo partly drawn) [compound 132, 2-amino-4-(3-chloro-1-fluoro-12-(((2R,7aS)-2-fluorotetrahydro-1H-pyrrolizin-7a(5H)-yl)methoxy)-7-hydroxy-5,5a,6,7,8,9-hexahydropyrido[2′,1′:3,4][1,4]oxazepino[5,6,7-de]quinazolin-2-yl)-7-fluorobenzo[b]thiophene-3-carbonitrile] |  | < 5 µM |  | < 5 µM |  | < 5 µM |  | < 5 µM | < 5 µM | < 5 µM | < 5 µM
5 | N#Cc1c(N)sc2c(F)ccc(-c3c(Cl)c4c5c(nc(OCC67CCCN6C[C@H](F)C7)nc5c3F)N3CC(C#N)CCC3CO4)c12 (stereo partly drawn) [compound 150, 5-(2-amino-3-cyano-7-fluorobenzo[b]thiophen-4-yl)-6-chloro-4-fluoro-2-(((2R)-2-fluorotetrahydro-1H-pyrrolizin-7a(5H)-yl)methoxy)-8,8a,9,10,11,12-hexahydropyrido[2′,1′:3,4][1,4]oxazepino [5,6,7-de]quinazoline-11-carbonitrile] |  | < 5 µM |  | < 5 µM |  | < 5 µM |  | < 5 µM | < 5 µM | < 5 µM | < 5 µM
6 | N#Cc1c(N)sc2c(F)ccc(-c3c(Cl)c4c5c(nc(OC[C@@]67CCCN6C[C@H](F)C7)nc5c3F)N3CC5(CCCC3CCO4)CN(C(=O)C3CC3(F)F)C5)c12 (stereo partly drawn) [compound 127, 2-amino-4-(3-chloro-1′-(2,2-difluorocyclopropane-1-carbonyl)-1-fluoro-14-(((2R,7aS)-2-fluorotetrahydro-1H-pyrrolizin-7a(5H)-yl)methoxy)-5,6,6a,7,8,9-hexahydro-11H-spiro[azepino[1′,2′:5,6][1,5]oxazocino[4,3,2-de]quinazoline-10,3′-azetidin]-2-yl)-7-fluorobenzo[b]thiophene-3-carbonitrile] |  | < 5 µM |  | < 5 µM |  | > 5 µM |  | < 5 µM | < 5 µM | < 5 µM | < 5 µM
7 | N#Cc1c(N)sc2c(F)ccc(-c3c(Cl)c4c5c(nc(OC[C@@]67CCCN6C[C@H](F)C7)nc5c3F)N3CC(F)(F)C[C@@H]3CO4)c12 [compound 176, 2-amino-4-((8aR)-6-chloro-4,10,10-trifluoro-2-(((2R,7aS)-2-fluorotetrahydro-1H-pyrrolizin-7a(5H)-yl)methoxy)-8a,9,10,11-tetrahydro-8H-pyrrolo[2′,1′:3,4][1,4]oxazepino[5,6,7-de]quinazolin-5-yl)-7-fluorobenzo[b]thiophene-3-carbonitrile] |  | < 5 µM |  | < 5 µM |  | < 5 µM |  | < 5 µM | < 5 µM | < 5 µM | < 5 µM
8 | CN1c2nc(OC[C@@]34CCCN3C[C@H](F)C4)nc3c(F)c(-c4ccc(F)c5sc(N)c(C#N)c45)c(Cl)c(c23)OC2CN(C=O)CC21 (stereo partly drawn) [compound 126, 2-amino-4-(6-chloro-4-fluoro-2-(((2R,7aS)-2-fluorotetrahydro-1H-pyrrolizin-7a(5H)-yl)methoxy)-9-formyl-11-methyl-7a,8,9,10,10a,11-hexahydropyrrolo[3′,4′:2,3][1,4]oxazepino[5,6,7-de]quinazolin-5-yl)-7-fluorobenzo[b]thiophene-3-carbonitrile] |  | < 5 µM |  | < 5 µM |  | < 5 µM |  | < 5 µM | < 5 µM | < 5 µM | < 5 µM
9 | CN1c2nc(OC[C@@]34CCCN3C[C@H](F)C4)nc3c(F)c(-c4ccc(F)c5sc(N)c(C#N)c45)c(Cl)c(c23)OCC2CN(C(=O)[C@@H]3N[C@H]3C3CC3)CC21 (stereo partly drawn) [compound 146, 2-amino-4-(6-chloro-10-((2R,3S)-3-cyclopropylaziridine-2-carbonyl)-4-fluoro-2-(((2R,7aS)-2-fluorotetrahydro-1H-pyrrolizin-7a(5H)-yl)methoxy)-12-methyl-8a,9,10,11,11a,12-hexahydro-8H-pyrrolo[3′,4′:6,7][1,5]oxazocino[4,3,2-de]quinazolin-5-yl)-7-fluorobenzo[b]thiophene-3-carbonitrile] |  | < 5 µM |  | < 5 µM |  | > 5 µM |  | < 5 µM | < 5 µM | < 5 µM | < 5 µM
10 | COCC1CCC2COc3c(Cl)c(-c4ccc(F)c5sc(N)c(C#N)c45)c(F)c4nc(OC[C@@]56CCCN5C[C@H](F)C6)nc(c34)N12 (stereo partly drawn) [compound 138, 2-amino-4-(6-chloro-4-fluoro-2-(((2R,7aS)-2-fluorotetrahydro-1H-pyrrolizin-7a(5H)-yl)methoxy)-11-(methoxymethyl)-8a,9,10,11-tetrahydro-8H-pyrrolo[2′,1′:3,4][1,4]oxazepino[5,6,7-de]quinazolin-5-yl)-7-fluorobenzo[b]thiophene-3-carbonitrile] |  | < 5 µM |  | < 5 µM |  | < 5 µM |  | < 5 µM | < 5 µM | < 5 µM | < 5 µM

— patent publication US12059425B2, “Heterocyclic compounds and uses thereof” (Kumquat Biosciences Inc., priority 2022, dated 2024)
